{"source": "patent US5854279A", "about": "“Therapeutic agent for dermatosis” (Eisai Co., Ltd, priority 1996, dated 1998)", "key": {"[1]": {"tested_on": "epidermal ornithine decarboxylase (ODC)", "experiment": "TPA-induced mouse epidermal ornithine decarboxylase (ODC) activity", "type": "in vivo, hairless mouse (SKH/hr-1)", "conditions": "for Epidermal ODC Activity: TPA 17 nmol, average of five cases ± standard error", "experimental": "(2) Measurement of Mouse Epidermal Ornithine Decarboxylase (ODC) Activity\n1) Induction of ODC Activity\nThe experiment was carried out according to the method by O'Brien et al. (Cancer Research, 1975, 35(2), p 1662-1670).\n[…] of acetone solution containing 17 nmol of TPA (phorbol 12-myristate 13-acetate, manufactured by Sigma) and 0.5 to 2 μmol of Compound (II) or 2-(2-acetyl-6-methoxy-3,9-dioxo-4,8-dioxa-2,10-diazaoctacosa-1-yl)-1-ethylpyridinium salt (customary name; CV-6209, manufactured by Wako Junyaku) was homogeneously applied on the skin of the back (about 8 cm^2) of the hairless mouse (strain: SKH/hr-1, female, age in week of 9). After 4.5 hours, mouse was killed by anesthetizing with ether, and skin tissue was excised. The skin tissue was treated at 55° C. for 30 seconds, then ice-cooled and the epidermis was peeled off. To this epidermis, 1 ml of 50 mM sodium phosphate buffer [pH 7.2, 0.4 mM pyridoxal 5-phosphate (manufactured by Sigma), 5 mM dithiothreitol (manufactured by Sigma)] were added, homogenized and then centrifuged at 4° C. and 30,000 g for 30 minutes to obtain a supernatant.\n2) Measurement of ODC Activity\nODC activity in the supernatant was measured by ^14 CO2 release from L-[1-^14 C]ornithine (manufactured by Sigma) as an index. A tube containing 50 μl of the above buffer comprising 1 mM L-ornithine and […] L-[1-^14 C]ornithine (manufactured by Amersham) as well as 100 μl of homogenate sample added thereto was rapidly placed into a vial, and sealed. This vial was incubated at 37° C. for one hour, to which was added 0.3 ml of 2M citric acid solution and further incubated for one hour. ^14 CO2 released during this period was trapped by using a filter containing 0.15 ml of NCS solubilizer set in the reaction vial. After removing out the tube, 15 ml of liquid scintillator (ACSII) was added and radioactivity in the vial was measured by using a liquid scintillation counter.\nFurther, the concentration of protein in the homogenate sample was quantified by using the above BIO-RAD PROTEIN ASSAY, and the amount of the released ^14 CO2 /mg protein was calculated and used as an index of ODC activity."}, "MPO (myeloperoxidase)": {"tested_on": "MPO (myeloperoxidase)", "experiment": "MPO activity in TPA-treated earlobe", "type": "in vivo, BALB/c mouse", "conditions": "for MPO Activity: TPA 2 μmol, average of seven cases ± SEM", "experimental": "(§1) The mixture was applied to inner surface of the right earlobe of BALB/c mouse (male, age in week of 8), to induce inflammation. Four hours after TPA application, the mouse was killed by dislocation of cervical vertebrae and the thickness of each right and left earlobe was measured by using a Dial Thickness Gauge (manufactured by Peacock Co., G0.01 to 10 mm) and the difference in thickness between right and left earlobe was considered as edema.\n2) Measurement of MPO Activity\nAfter measurement of edema, MPO (myeloperoxidase) activity of the excised right earlobe was measured by the following method. 1 ml of 0.5% HTAB (hexadecyl trimethylammonium bromide, manufactured by Sigma Chemical Co.)/50 mM potassium phosphate buffer, pH 6.0 was added to the excised right earlobe and homogenized. The supernatant obtained after centrifugation was used as an extract. Measurement of MPO activity in the extract was carried out according to a method using a 96-well plate. […] Absorbance at 450 nm was measured for 3 minutes at every 10 seconds. The slope of the straight line obtained for 1 minute after 10 seconds from the beginning of the reaction was calculated for every each sample. MPO activity when the slope is 1 is defined as 1 unit (U), and number of unit in the extract was obtained. Further, the amount of protein in the extract was quantified by BIO-RAD PROTEIN ASSAY (manufactured by Bio-Rad Laboratories), and expressed as MPO activity/mg protein."}, "[2]": {"tested_on": "TPA-induced earlobe edema", "experiment": "TPA-induced ear edema", "type": "in vivo, BALB/c mouse", "conditions": "for Right earlobe edema: TPA 2 μmol, average of seven cases ± SEM", "experimental": "The test was conducted according to the method by Carlson et al. (Agents and Actions, 1985, 17(2), p 197-204).\nas §1, with “That is, 2 mg of TPA (phorbol 12-myristate 13-acetate, manufactured by Sigma Chemical Co.) and 4 to 100 nmol of Compound (II) or 250 nmol of dexamethasone (manufactured by Sigma Chemical Co.) were dissolved in […] of acetone. The” for “The”"}, "[3]": {"experiment": "Acute toxicity test, single intravenous dosage (LD50), mouse", "parameters": "species or system mouse (Slc:ICR)", "conditions": "in vivo", "excerpt": "(§2) Slc:SD rat and Slc:ICR mice (age in week of 6 to 8), each group has 5 male and 5 female, were applied to a toxicity test upon single dosage carried out by intravenous administration."}, "[4]": {"experiment": "Acute toxicity test, single intravenous dosage (LD50), rat", "parameters": "species or system rat (Slc:SD)", "conditions": "in vivo", "excerpt": "as §2"}, "[5]": {"conditions": "2 μmol, Compound (II) p < 0.01 vs. TPA control"}, "[6]": {"conditions": "2 μmol, significant for Compound (II)"}}, "note": "Structures can show the parent of a compound that is named as a salt."}
{"smiles": "CCCCCCCCCCCCCCCCCCNC(=O)OCC(COC(=O)N(Cc1cccc[n+]1CC)C(C)=O)OC", "note": "(centres unmarked) [CV-6209, 2-(2-acetyl-6-methoxy-3,9-dioxo-4,8-dioxa-2,10-diazaoctacosa-1-yl)-1-ethylpyridinium salt]", "values": [{"measurement": "Epidermal ODC Activity", "setting": "[1]; [5]", "result": "0.374 ± 0.147", "unit": "nmol CO2 /mg protein"}, {"measurement": "inhibition of TPA-induced increase in epidermal ODC activity", "setting": "[1]; [6]", "result": "about 53%"}]}
{"smiles": "CCCCCCCCCCCCCCCCCCNC(=O)OC1CCN(C(=O)OC[C@H](COC(=O)N(Cc2cccc[n+]2CC)C(=O)c2ccccc2OC)OC)CC1", "note": "[Compound (II), 1-ethyl-2-[N-(2-methoxy)benzoyl-N-{(2R)-2-methoxy-3-(4-octadecylcarbamoyloxy)piperidinocarbonyloxypropoxy}carbonyl]aminomethyl pyridinium chloride]", "values": [{"measurement": "Epidermal ODC Activity", "setting": "[1]; 0.5 μmol, P < 0.05 vs. TPA control", "result": "0.379 ± 0.130", "unit": "nmol CO2 /mg protein"}, {"measurement": "inhibition of TPA-induced increase in epidermal ODC activity", "setting": "[1]; 0.5 μmol, significant", "result": "about 52%"}, {"measurement": "Epidermal ODC Activity", "setting": "[1]; [5]", "result": "0.136 ± 0.066", "unit": "nmol CO2 /mg protein"}, {"measurement": "inhibition of TPA-induced increase in epidermal ODC activity", "setting": "[1]; [6]", "result": "~83", "unit": "%"}, {"measurement": "inhibition against MPO activity", "setting": "MPO (myeloperoxidase); 4 nmol/ear", "result": "did not show inhibition"}, {"measurement": "MPO Activity", "setting": "MPO (myeloperoxidase); 4 nmol/earlobe", "result": "7.63 ± 1.30 U/mg, protein"}, {"measurement": "inhibition against MPO activity", "setting": "MPO (myeloperoxidase); 20 nmol/ear", "result": "did not show inhibition"}, {"measurement": "MPO Activity", "setting": "MPO (myeloperoxidase); 20 nmol/earlobe", "result": "8.51 ± 1.21 U/mg, protein"}, {"measurement": "inhibition against MPO activity", "setting": "MPO (myeloperoxidase); 100 nmol/ear", "result": "about 46%"}, {"measurement": "MPO Activity", "setting": "MPO (myeloperoxidase); 100 nmol/earlobe", "result": "3.45 ± 1.06 U/mg, protein"}, {"measurement": "inhibition for TPA-induced earlobe edema", "setting": "[2]; 4 nmol/ear", "result": "no inhibition"}, {"measurement": "Right earlobe edema", "setting": "[2]; 4 nmol/earlobe", "result": "105.9 ± 33.4", "unit": "μm"}, {"measurement": "inhibition for TPA-induced earlobe edema", "setting": "[2]; 20 nmol/ear", "result": "no inhibition"}, {"measurement": "Right earlobe edema", "setting": "[2]; 20 nmol/earlobe", "result": "92.7 ± 19.8", "unit": "μm"}, {"measurement": "inhibition for TPA-induced earlobe edema", "setting": "[2]; 100 nmol/ear, significant", "result": "about 81%"}, {"measurement": "Right earlobe edema", "setting": "[2]; 100 nmol/earlobe, P < 0.05", "result": "16.7 ± 3.0", "unit": "μm"}, {"measurement": "LD50", "setting": "[3]; female", "result": 50, "unit": "mg/kg"}, {"measurement": "LD50", "setting": "[3]; male", "result": 46.8, "unit": "mg/kg"}, {"measurement": "LD50", "setting": "[4]; female", "result": 22.9, "unit": "mg/kg"}, {"measurement": "LD50", "setting": "[4]; male", "result": 18.2, "unit": "mg/kg"}]}
{"smiles": "C[C@@H]1C[C@H]2[C@@H]3CCC4=CC(=O)C=C[C@]4(C)[C@@]3(F)[C@@H](O)C[C@]2(C)[C@@]1(O)C(=O)CO", "note": "[Dexamethasone, dexamethasone, reference compound]", "values": [{"measurement": "inhibition against MPO activity", "setting": "MPO (myeloperoxidase); 250 nmol/ear", "result": "about 13%"}, {"measurement": "MPO Activity", "setting": "MPO (myeloperoxidase); 250 nmol/earlobe", "result": "5.52 ± 0.59 U/mg, protein"}, {"measurement": "inhibition for TPA-induced earlobe edema", "setting": "[2]; 250 nmol/ear, significant", "result": "about 60%"}, {"measurement": "Right earlobe edema", "setting": "[2]; 250 nmol/earlobe, P < 0.05", "result": "34.7 ± 3.3", "unit": "μm"}]}
